Source: US20230042936A1, “PYRIDO[2,3-d]PYRIMIDIN-7(8H)-ONES AS CDK INHIBITORS” (PROSENESTAR LLC, priority 2020, published 2023)
Entries after “also recorded” stand apart in the source; their conditions may differ. Read-outs that look alike come from different tables or passages of the source.

How the values were obtained:
CDK2/CycE1 = CDK2/CycE1 (Homo sapiens, UniProt P24941); experiment: Kinase profiling; assay type: biochemical
DYRK2 = target: T1, DYRK2 (Homo sapiens, UniProt Q92630); experiment: Kinase profiling; assay type: biochemical; conditions: 10 semi-logarithmic dilutions from 50 μM, singlicate; read-out: IC50 DYRK2
T1 sequence (Q92630 1-601): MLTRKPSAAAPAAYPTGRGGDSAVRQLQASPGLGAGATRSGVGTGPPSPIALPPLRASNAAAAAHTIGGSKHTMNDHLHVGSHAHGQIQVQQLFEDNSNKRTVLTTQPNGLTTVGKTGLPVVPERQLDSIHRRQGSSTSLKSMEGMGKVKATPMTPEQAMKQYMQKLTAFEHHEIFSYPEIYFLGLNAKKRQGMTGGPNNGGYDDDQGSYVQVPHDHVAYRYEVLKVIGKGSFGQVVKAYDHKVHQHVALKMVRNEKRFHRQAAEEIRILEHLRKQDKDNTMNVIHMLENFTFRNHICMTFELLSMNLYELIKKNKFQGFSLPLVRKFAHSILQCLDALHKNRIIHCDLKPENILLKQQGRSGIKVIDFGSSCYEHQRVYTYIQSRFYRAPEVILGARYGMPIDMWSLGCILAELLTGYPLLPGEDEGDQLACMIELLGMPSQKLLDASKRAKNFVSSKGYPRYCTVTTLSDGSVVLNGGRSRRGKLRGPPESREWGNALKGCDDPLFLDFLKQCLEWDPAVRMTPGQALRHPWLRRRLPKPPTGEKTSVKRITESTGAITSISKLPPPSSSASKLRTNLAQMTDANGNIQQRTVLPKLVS

CDK2/CycA2 = CDK2/CycA2 (Homo sapiens, UniProt P24941); experiment: Kinase profiling; assay type: biochemical
PIM1 = PIM1 (Homo sapiens, UniProt P11309); experiment: Kinase profiling; assay type: biochemical; conditions: 10 semi-logarithmic dilutions from 50 μM, singlicate
CDK1/CycB1 = CDK1/CycB1 (Homo sapiens, UniProt P06493); experiment: Kinase profiling; assay type: biochemical
PCTAIRE1/CycY = PCTAIRE1/CycY (Homo sapiens, UniProt Q00536); experiment: Kinase profiling; assay type: biochemical; conditions: 10 semi-logarithmic dilutions from 50 μM, singlicate
Sequence of PCTAIRE1/CycY (Q00536 whole entry, species assumed): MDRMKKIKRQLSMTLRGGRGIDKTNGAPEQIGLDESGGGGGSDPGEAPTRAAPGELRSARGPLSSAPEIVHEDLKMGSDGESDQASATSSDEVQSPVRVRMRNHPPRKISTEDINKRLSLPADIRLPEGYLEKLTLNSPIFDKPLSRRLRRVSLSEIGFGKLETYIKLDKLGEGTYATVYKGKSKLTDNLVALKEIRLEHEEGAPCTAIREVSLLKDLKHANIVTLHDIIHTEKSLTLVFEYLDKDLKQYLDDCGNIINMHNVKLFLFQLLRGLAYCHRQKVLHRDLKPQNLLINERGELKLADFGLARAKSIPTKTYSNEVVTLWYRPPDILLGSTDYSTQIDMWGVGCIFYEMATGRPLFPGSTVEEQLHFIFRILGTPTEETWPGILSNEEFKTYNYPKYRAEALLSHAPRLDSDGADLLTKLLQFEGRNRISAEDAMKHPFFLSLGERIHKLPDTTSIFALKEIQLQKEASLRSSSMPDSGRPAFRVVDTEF
Sequence of PCTAIRE1/CycY (Q8ND76 whole entry partner, species assumed): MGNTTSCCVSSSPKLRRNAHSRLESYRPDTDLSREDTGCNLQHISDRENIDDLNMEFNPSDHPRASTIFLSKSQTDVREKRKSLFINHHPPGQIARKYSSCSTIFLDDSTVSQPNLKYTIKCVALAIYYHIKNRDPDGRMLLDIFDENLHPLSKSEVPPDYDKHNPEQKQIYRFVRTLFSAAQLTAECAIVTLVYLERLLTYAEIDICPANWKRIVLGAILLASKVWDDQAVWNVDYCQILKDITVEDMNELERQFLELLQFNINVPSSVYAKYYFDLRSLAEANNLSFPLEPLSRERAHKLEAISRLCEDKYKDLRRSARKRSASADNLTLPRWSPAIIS

CDK1/CycE1 = CDK1/CycE1 (Homo sapiens, UniProt P06493); experiment: Kinase profiling; assay type: biochemical
CDK12wt/CycK = CDK12wt/CycK (Homo sapiens, UniProt Q9NYV4); experiment: Kinase profiling; assay type: biochemical; conditions: 10 semi-logarithmic dilutions from 50 μM, singlicate
[1] = test system: MDA-MB-231 human breast cancer cells; experiment: Cell cycle analysis (DNA content, flow cytometry); assay type: cell-based; conditions: GI50 concentration; FIG. 1
Experimental: FIG. 1 depicts DNA content profiles of MDA-MB-231 human breast cancer cells treated with subject compounds or commercial CDK inhibitors, showing the percentage of cells at the different cell cycle phases after 48 hours of the treatments indicated. (n=6 technical replicates).
Cells were collected by trypsinization, washed with PBS and fixed with cold 70% ethanol. Cells were treated with 250 μg/ml RNase (Qiagen) for 30 minutes at 37° C. and stained with 10 μg/ml Propidium Iodide (Sigma). Cell cycle was analyzed by flow cytometry using a LSR Fortessa Analyzer. Cell cycle profiles were generated and analyzed with FlowJo software.
Cells were collected by tripsinization at several times after treatment with the indicated compounds and, then, fixed with cold 70% Ethanol. DNA content was determined by staining with propidium iodide (10 μg/ml, Sigma Aldrich). Data acquisition was performed with a LSR Fortessa analyzer (BD Biosciences) and analysed using FlowJo software.

DYRK1A = DYRK1A (Homo sapiens, UniProt Q13627); experiment: Kinase profiling; assay type: biochemical; conditions: 10 semi-logarithmic dilutions from 50 μM, singlicate
CDC7/DBF4 = CDC7/DBF4 (Homo sapiens, UniProt O00311); experiment: Kinase profiling; assay type: biochemical; conditions: 10 semi-logarithmic dilutions from 50 μM, singlicate; read-out: IC50 CDC7/DBF4
Sequence of CDC7/DBF4 (O00311 whole entry): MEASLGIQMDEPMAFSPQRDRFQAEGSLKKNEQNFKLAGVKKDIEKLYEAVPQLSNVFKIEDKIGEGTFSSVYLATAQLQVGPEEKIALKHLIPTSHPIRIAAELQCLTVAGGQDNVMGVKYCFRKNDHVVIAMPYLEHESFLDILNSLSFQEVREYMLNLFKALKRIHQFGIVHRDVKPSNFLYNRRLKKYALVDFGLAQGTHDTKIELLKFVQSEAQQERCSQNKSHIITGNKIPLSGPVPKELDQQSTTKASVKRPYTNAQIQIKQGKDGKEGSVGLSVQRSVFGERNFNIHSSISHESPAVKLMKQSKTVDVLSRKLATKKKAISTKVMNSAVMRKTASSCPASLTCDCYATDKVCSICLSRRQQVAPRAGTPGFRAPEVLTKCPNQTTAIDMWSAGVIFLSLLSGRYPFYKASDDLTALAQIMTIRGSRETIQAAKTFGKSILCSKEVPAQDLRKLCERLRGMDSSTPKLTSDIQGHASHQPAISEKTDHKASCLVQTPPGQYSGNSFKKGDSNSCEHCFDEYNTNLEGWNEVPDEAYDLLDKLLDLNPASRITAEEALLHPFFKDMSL
Sequence of CDC7/DBF4 (Q9UBU7 whole entry partner): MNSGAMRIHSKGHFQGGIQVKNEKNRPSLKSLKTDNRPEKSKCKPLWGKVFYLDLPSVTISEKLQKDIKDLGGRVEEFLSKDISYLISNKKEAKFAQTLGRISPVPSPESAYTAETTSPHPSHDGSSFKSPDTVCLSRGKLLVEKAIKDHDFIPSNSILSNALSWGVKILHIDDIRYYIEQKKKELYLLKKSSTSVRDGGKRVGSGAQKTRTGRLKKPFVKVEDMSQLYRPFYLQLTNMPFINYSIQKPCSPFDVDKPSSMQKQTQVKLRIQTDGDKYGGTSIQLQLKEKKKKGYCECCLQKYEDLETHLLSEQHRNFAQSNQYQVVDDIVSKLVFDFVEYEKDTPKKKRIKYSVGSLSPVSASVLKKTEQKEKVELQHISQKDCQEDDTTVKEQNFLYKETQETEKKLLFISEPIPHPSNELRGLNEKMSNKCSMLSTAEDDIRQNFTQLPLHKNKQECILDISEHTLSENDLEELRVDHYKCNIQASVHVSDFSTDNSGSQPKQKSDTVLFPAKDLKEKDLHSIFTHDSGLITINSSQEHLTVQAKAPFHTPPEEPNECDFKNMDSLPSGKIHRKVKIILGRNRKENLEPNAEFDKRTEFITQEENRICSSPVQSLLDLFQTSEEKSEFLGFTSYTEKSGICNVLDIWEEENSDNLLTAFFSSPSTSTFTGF

CDK9/CycT1 = CDK9/CycT1 (Homo sapiens, UniProt P50750); experiment: Kinase profiling; assay type: biochemical; conditions: 10 semi-logarithmic dilutions from 50 μM, singlicate
CDK9/CycK = CDK9/CycK (Homo sapiens, UniProt P50750); experiment: Kinase profiling; assay type: biochemical; conditions: 10 semi-logarithmic dilutions from 50 μM, singlicate
ERK1 = ERK1 (Homo sapiens, UniProt P27361); experiment: Kinase profiling; assay type: biochemical; conditions: 10 semi-logarithmic dilutions from 50 μM, singlicate
CDK3/CycE1 = CDK3/CycE1 (Homo sapiens, UniProt Q00526); experiment: Kinase profiling; assay type: biochemical; conditions: 10 semi-logarithmic dilutions from 50 μM, singlicate
CDK8/CycC = CDK8/CycC (Homo sapiens, UniProt P49336); experiment: Kinase profiling; assay type: biochemical; conditions: 10 semi-logarithmic dilutions from 50 μM, singlicate
CDK3/CycC = CDK3/CycC (Homo sapiens, UniProt Q00526); experiment: Kinase profiling; assay type: biochemical; conditions: 10 semi-logarithmic dilutions from 50 μM, singlicate
CDK5/p25NCK = CDK5/p25NCK (Homo sapiens, UniProt Q00535); experiment: Kinase profiling; assay type: biochemical
Sequence of CDK5/p25NCK (Q00535 whole entry): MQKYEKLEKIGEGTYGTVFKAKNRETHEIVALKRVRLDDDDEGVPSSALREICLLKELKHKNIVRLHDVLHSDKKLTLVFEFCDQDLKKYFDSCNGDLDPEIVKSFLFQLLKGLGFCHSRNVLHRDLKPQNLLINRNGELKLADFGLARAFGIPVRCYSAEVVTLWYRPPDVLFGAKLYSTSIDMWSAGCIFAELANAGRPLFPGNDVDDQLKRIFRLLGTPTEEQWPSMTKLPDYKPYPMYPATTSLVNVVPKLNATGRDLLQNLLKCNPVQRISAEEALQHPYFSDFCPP
Sequence of CDK5/p25NCK (Q15078 99-307 partner limits assumed): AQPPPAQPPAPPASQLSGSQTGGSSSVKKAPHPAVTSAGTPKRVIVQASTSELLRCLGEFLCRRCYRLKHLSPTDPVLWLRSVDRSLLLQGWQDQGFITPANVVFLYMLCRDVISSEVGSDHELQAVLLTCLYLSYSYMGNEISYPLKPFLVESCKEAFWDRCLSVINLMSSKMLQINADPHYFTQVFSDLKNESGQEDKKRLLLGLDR

CDK4/CycD3 = CDK4/CycD3 (Homo sapiens, UniProt P11802); experiment: Kinase profiling; assay type: biochemical
HIPK2 = HIPK2 (Homo sapiens, UniProt Q9H2X6); experiment: Kinase profiling; assay type: biochemical; conditions: 10 semi-logarithmic dilutions from 50 μM, singlicate; read-out: IC50 HIPK2
CDK6/CycD3 = CDK6/CycD3 (Homo sapiens, UniProt Q00534); experiment: Kinase profiling; assay type: biochemical; conditions: 10 semi-logarithmic dilutions from 50 μM, singlicate
Sequence of CDK6/CycD3 (Q00534 whole entry): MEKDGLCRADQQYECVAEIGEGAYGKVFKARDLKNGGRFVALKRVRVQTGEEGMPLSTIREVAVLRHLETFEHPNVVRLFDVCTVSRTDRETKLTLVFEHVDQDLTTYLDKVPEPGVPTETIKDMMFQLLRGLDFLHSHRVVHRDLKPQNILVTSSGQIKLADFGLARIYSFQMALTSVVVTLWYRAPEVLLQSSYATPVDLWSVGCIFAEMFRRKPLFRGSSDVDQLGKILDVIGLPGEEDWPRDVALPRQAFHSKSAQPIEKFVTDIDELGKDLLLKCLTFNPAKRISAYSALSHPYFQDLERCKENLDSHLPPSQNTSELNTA
Sequence of CDK6/CycD3 (P30281 whole entry partner): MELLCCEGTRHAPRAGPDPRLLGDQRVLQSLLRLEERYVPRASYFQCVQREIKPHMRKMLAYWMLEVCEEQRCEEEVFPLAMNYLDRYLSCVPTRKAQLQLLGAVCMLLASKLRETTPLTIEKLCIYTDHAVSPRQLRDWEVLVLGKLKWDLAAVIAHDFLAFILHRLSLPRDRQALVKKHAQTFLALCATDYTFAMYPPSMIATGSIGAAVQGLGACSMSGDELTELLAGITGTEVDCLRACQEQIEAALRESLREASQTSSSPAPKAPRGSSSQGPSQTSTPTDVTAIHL

CDK7/CycH/MAT1 = CDK7/CycH/MAT1 (Homo sapiens, UniProt P50613); experiment: Kinase profiling; assay type: biochemical; conditions: 10 semi-logarithmic dilutions from 50 μM, singlicate
CDK19/CycC = CDK19/CycC (Homo sapiens, UniProt Q9BWU1); experiment: Kinase profiling; assay type: biochemical; conditions: 10 semi-logarithmic dilutions from 50 μM, singlicate
CDK1/CycA2 = CDK1/CycA2 (Homo sapiens, UniProt P06493); experiment: Kinase profiling; assay type: biochemical
Sequence of CDK1/CycA2 (P06493 whole entry): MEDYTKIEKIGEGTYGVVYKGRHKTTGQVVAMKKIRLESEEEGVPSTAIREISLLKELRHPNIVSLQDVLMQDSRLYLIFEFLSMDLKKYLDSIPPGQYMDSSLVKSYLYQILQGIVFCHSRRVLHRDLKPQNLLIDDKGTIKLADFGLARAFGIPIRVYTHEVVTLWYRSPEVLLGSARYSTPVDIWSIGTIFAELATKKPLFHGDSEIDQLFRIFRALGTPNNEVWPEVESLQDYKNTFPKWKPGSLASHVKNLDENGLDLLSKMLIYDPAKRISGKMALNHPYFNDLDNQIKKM
Sequence of CDK1/CycA2 (P20248 whole entry partner): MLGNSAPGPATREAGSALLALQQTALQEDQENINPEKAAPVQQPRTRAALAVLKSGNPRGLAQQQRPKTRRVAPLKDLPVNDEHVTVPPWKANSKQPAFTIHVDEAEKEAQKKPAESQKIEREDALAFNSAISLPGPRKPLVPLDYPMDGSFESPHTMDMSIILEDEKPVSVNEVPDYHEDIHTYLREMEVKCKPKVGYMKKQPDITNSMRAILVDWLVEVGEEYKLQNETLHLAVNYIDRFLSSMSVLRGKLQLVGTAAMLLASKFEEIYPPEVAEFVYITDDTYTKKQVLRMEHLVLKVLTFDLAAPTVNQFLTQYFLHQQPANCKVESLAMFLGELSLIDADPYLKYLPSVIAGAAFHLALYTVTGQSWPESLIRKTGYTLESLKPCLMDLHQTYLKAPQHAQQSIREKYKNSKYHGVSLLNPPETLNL

CDK5/p35NCK = CDK5/p35NCK (Homo sapiens, UniProt Q00535); experiment: Kinase profiling; assay type: biochemical
Sequence of CDK5/p35NCK (Q00535 whole entry): as the sequence (Q00535 whole entry) above
Sequence of CDK5/p35NCK (Q15078 whole entry partner): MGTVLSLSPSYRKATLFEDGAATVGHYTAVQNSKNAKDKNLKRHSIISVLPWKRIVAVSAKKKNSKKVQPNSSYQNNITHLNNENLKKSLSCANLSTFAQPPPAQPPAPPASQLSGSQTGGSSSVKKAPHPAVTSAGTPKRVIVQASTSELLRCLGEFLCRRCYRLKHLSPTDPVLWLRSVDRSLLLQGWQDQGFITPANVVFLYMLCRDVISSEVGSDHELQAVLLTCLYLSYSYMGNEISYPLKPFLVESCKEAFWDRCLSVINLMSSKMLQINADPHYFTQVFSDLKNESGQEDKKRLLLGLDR

CDK6/CycD1 = CDK6/CycD1 (Homo sapiens, UniProt Q00534); experiment: Kinase profiling; assay type: biochemical; conditions: 10 semi-logarithmic dilutions from 50 μM, singlicate
Sequence of CDK6/CycD1 (Q00534 whole entry): as the sequence (Q00534 whole entry) above
Sequence of CDK6/CycD1 (P24385 whole entry partner): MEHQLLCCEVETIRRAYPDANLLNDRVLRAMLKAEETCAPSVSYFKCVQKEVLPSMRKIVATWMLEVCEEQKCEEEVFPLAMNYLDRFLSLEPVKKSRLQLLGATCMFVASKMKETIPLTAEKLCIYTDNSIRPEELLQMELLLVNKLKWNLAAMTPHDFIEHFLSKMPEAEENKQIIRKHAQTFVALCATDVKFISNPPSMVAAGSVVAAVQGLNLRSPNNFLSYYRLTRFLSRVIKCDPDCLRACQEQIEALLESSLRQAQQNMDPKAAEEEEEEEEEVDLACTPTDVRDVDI

[2] = 10 semi-logarithmic dilutions from 50 μM, singlicate

SMILES | IC50 (DYRK2) | IC50 (PIM1) | IC50 (PCTAIRE1/CycY) | IC50 (CDK12wt/CycK) | cell cycle arrest by DNA content [1] | IC50 (DYRK1A) | IC50 (CDC7/DBF4) | IC50 (CDK9/CycT1) | IC50 (CDK9/CycK) | IC50 (ERK1) | IC50 (CDK3/CycE1) | IC50 (CDK8/CycC) | IC50 (CDK3/CycC) | IC50 (HIPK2) | IC50 (CDK6/CycD3) | IC50 (CDK7/CycH/MAT1) | IC50 (CDK19/CycC) | IC50 (CDK6/CycD1) | IC50 (CDK2/CycE1; [2]) | IC50 (CDK2/CycA2; [2]) | other results
O=c1ccc2cnc(Nc3ccc(N4CCC(CCCO)CC4)cc3)nc2n1C1CC2CCC1C2 (stereo not shown) [PD-0183812, reference compound] | > 50 µM | 35.9 µM | 43.5 µM | 3.16 µM | arrested cells with a 4N DNA content | 31.9 µM | 18.8 µM | 0.484 µM | 0.174 µM | 29.6 µM | 0.885 µM | 0.256 µM | 5.21 µM | > 50 µM | 0.301 µM | 45.4 µM | 17.4 µM | 0.0199 µM |  |  | IC50 (CDK2/CycE1): 0.122 µM; IC50 (CDK2/CycA2): 0.341 µM; IC50 (CDK1/CycB1): 32.1 µM; IC50 (CDK1/CycE1): 8.09 µM; IC50 (CDK5/p25NCK): 30.1 µM; IC50 (CDK4/CycD3): 0.0718 µM; IC50 (CDK1/CycA2): 28.8 µM; IC50 (CDK5/p35NCK): 1.84 µM
O=c1ccc2cnc(Nc3ccc(N4CCC(CCCO)CC4)cc3F)nc2n1[C@@H]1CC2CCC1C2 (stereo partly drawn) [PS002, 8-((2R)-bicyclo[2.2.1]heptan-2-yl)-2-((2-fluoro-4-(4-(3-hydroxypropyl)piperidin-1-yl)phenyl)amino)pyrido[2,3-d]pyrimidin-7(8H)-one] | > 50 µM | 27.9 µM | > 50 µM | 28.4 µM |  | > 50 µM | 14.6 µM | 8.07 µM | 7.05 µM | 47.5 µM | 17.2 µM | 0.122 µM | 27.1 µM | > 50 µM | 12.6 µM | 40.7 µM | 24.9 µM | 0.485 µM | 7.29 µM | 19.7 µM | IC50 (CDK1/CycB1; [2]): 42.1 µM; IC50 (CDK1/CycE1; [2]): 14.6 µM; IC50 (CDK5/p25NCK; [2]): > 50 µM; IC50 (CDK4/CycD3; [2]): 3.84 µM; IC50 (CDK1/CycA2; [2]): 34 µM; IC50 (CDK5/p35NCK; [2]): 38.6 µM
O=c1ccc2cnc(Nc3ccc(N4CCC(CCCO)CC4)c(F)c3)nc2n1[C@@H]1CC2CCC1C2 (stereo partly drawn) [PS003, 8-((2R)-bicyclo[2.2.1]heptan-2-yl)-2-((3-fluoro-4-(4-(3-hydroxypropyl)piperidin-1-yl)phenyl)amino)pyrido[2,3-d]pyrimidin-7(8H)-one] | > 50 µM | > 50 µM | 43.8 µM | 3.18 µM | induced G2/M arrest | > 50 µM | 7.61 µM | 0.918 µM | 0.456 µM | > 50 µM | 1.13 µM | 0.677 µM | 3.95 µM | > 50 µM | 0.623 µM | 20 µM | 19.2 µM | 0.0732 µM | 0.545 µM | 0.81 µM | IC50 (CDK1/CycB1; [2]): 4.69 µM; IC50 (CDK1/CycE1; [2]): 2.97 µM; IC50 (CDK5/p25NCK; [2]): 4.66 µM; IC50 (CDK4/CycD3; [2]): 0.376 µM; IC50 (CDK1/CycA2; [2]): 7.86 µM; IC50 (CDK5/p35NCK; [2]): 1.92 µM
CC(O)CCC1CCN(c2ccc(Nc3ncc4ccc(=O)n([C@@H]5CC6CCC5C6)c4n3)cc2)CC1 (stereo partly drawn) [PS004, 8-((2R)-bicyclo[2.2.1]heptan-2-yl)-2-((4-(4-(3-hydroxybutyl)piperidin-1-yl)phenyl)amino)pyrido[2,3-d]pyrimidin-7(8H)-one] | 40.5 µM | > 50 µM | 13.5 µM | 0.923 µM | accumulation of cells both in G1 and G2/M phases; also recorded: arresting cells in G1/G2/M cell cycle phases | > 50 µM | 9.9 µM | 0.264 µM | 0.141 µM | 37.8 µM | 0.654 µM | 0.162 µM | 2.1 µM | > 50 µM | 0.442 µM | 21.7 µM | 9.6 µM | 0.0274 µM | 0.303 µM | 0.452 µM | IC50 (CDK1/CycB1; [2]): 16.4 µM; IC50 (CDK1/CycE1; [2]): 3.32 µM; IC50 (CDK5/p25NCK; [2]): 4.41 µM; IC50 (CDK4/CycD3; [2]): 0.123 µM; IC50 (CDK1/CycA2; [2]): 14.5 µM; IC50 (CDK5/p35NCK; [2]): 1.67 µM
